Experimental data as given in US20220289691A1, “5-AMINO-SUBSTITUTED PYRAZOLES AND TRIAZOLES AS PEST CONTROL AGENTS” (Bayer Aktiengesellschaft, priority 2019, published 2022).

Key:
Type in all cases: in vivo
Ctenocephalides felis [1] = test: Ctenocephalides felis oral test; settings: 48 h, 100 ppm in citrated cattle blood, adult cat fleas, after 2 days, read-out: efficacy (kill)
Description: Ctenocephalides felis—Oral Test
(§1) Solvent: Dimethyl Sulfoxide
To produce a suitable active compound formulation, 10 mg of active compound are mixed with 0.5 ml of dimethyl sulfoxide. Dilution with citrated cattle blood gives the desired concentration.
About 20 unfed adult cat fleas (Ctenocephalides felis) are placed into a chamber which is closed at the top and bottom with gauze. A metal cylinder whose bottom end is closed with parafilm is placed onto the chamber. The cylinder contains the blood/active compound formulation, which can be imbibed by the fleas through the parafilm membrane.
After 2 days, the kill in % is determined. 100% means that all of the fleas have been killed; 0% means that none of the fleas have been killed.

Spodoptera frugiperda = Spodoptera frugiperda spray test; settings: foliar, 168 h, maize leaf discs, after 7 days, read-out: efficacy (caterpillars killed)
Summary of the method: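 Compound was dissolved in acetone/dimethylformamide and diluted with water containing 1000 ppm alkylaryl polyglycol ether emulsifier to test concentrations. Maize leaf discs were sprayed, dried and infested with fall armyworm caterpillars. Efficacy (% caterpillars killed) was scored after 7 days.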

Tetranychus urticae = Tetranychus urticae spray test, OP-resistant; settings: 100 g/ha
Description: Tetranychus urticae—Spray Test, OP-Resistant Solvent: 78.0 parts by weight of acetone • • 1.5 parts by weight of dimethylformamide Emulsifier: alkylaryl polyglycol ether
(§2) To produce a suitable active compound formulation, 1 part by weight of active compound is dissolved using the stated parts by weight of solvent and made up with water containing an emulsifier concentration of 1000 ppm until the desired concentration is attained. To produce further test concentrations, the formulation is diluted with emulsifier-containing water.
Discs of bean leaves (Phaseolus vulgaris) infested with all stages of the greenhouse red spider mite (Tetranychus urticae) are sprayed with an active compound formulation of the desired concentration.
After 6 days, the efficacy in % is determined. 100% means that all the spider mites have been killed; 0% means that no spider mites have been killed.

Phaedon cochleariae = Phaedon cochleariae spray test; settings: foliar, 168 h, Chinese cabbage leaf discs, after 7 days, read-out: efficacy (beetle larvae killed)
Description: Phaedon cochleariae—Spray Test Solvent: 78.0 parts by weight of acetone • • 1.5 parts by weight of dimethylformamide Emulsifier: alkylaryl polyglycol ether
as §2
Discs of Chinese cabbage leaves (Brassica pekinensis) are sprayed with an active compound formulation of the desired concentration and, after drying, populated with larvae of the mustard beetle (Phaedon cochleariae).
After 7 days, the efficacy in % is determined. 100% means that all the beetle larvae have been killed; 0% means that no beetle larvae have been killed.

Musca domestica = Musca domestica test; settings: 100 ppm, adult houseflies, after 2 days
Description: as §1
To produce a suitable active compound formulation, 10 mg of active compound are mixed with 0.5 ml of dimethyl sulfoxide, and the concentrate is diluted with water to the desired concentration.
Vessels containing a sponge treated with sugar solution and the desired concentration of active compound formulation are populated with 10 adult houseflies (Musca domestica).
After 2 days, the kill in % is determined. 100% means that all of the flies have been killed; 0% means that none of the flies have been killed.

Diabrotica balteata = Diabrotica balteata spray test; settings: 168 h, beetle larvae on wheat, after 7 days, read-out: efficacy (wheat plant growth); for pest or weed control at 100 g/ha: 100 g/ha (=32 μg/cavity); for pest or weed control at 500 g/ha: 500 g/ha (=160 μg/cavity)
Summary of the method: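 Germinated wheat seedlings in agar multiwell plates were sprayed with compound in acetone/DMF with emulsifier-containing water, then infested with 10-20 Diabrotica balteata larvae. After 7 days, efficacy (%) scored by plant growth: 100% equals untreated, uninfested control, 0% no plants grown.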

Myzus persicae = Myzus persicae oral test; settings: 4 ppm, after 5 days
Description: Myzus persicae—Oral Test Solvent: 100 parts by weight of acetone
To produce a suitable active compound formulation, 1 part by weight of active compound is dissolved using the specified parts by weight of solvent and made up with water until the desired concentration is attained.
50 μl of the active compound formulation are transferred into microtitre plates and made up to a final volume of 200 μl with 150 μl of IPL41 insect medium (33%+15% sugar). Subsequently, the plates are sealed with parafilm, which a mixed population of green peach aphids (Myzus persicae) within a second microtitre plate is able to puncture and imbibe the solution through.
After 5 days, the efficacy in % is determined. 100% means that all the aphids have been killed; 0% means that no aphids have been killed.

Boophilus microplus = Boophilus microplus injection test; settings: 20 μg/animal, injection into engorged adult female cattle ticks, after 7 days
Description: Boophilus microplus—Injection Test
as §1
To produce a suitable active compound formulation, 10 mg of active compound are mixed with 0.5 ml of solvent and the concentrate is diluted to the desired concentration with solvent.
1 μl of the active compound solution is injected into the abdomen of 5 engorged adult female cattle ticks (Boophilus microplus). The animals are transferred into dishes and kept in a climate-controlled room.
Efficacy is assessed after 7 days by laying of fertile eggs. Eggs which are not visibly fertile are stored in a climate-controlled cabinet until the larvae hatch after about 42 days. An efficacy of 100% means that none of the ticks has laid any fertile eggs; 0% means that all the eggs are fertile.

Ctenocephalides felis [2] = test: Ctenocephalides felis in vitro contact test with adult cat fleas; settings: 5 μg/cm^2 (=500 g of ai/ha), after 48 h, read-out: efficacy (fleas dead or moribund)
Description: Ctenocephalides felis—In Vitro Contact Tests with Adult Cat Fleas
For the coating of the test tubes, 9 mg of active compound are first dissolved in 1 ml of acetone p.a. and then diluted to the desired concentration with acetone p.a. 250 μl of the solution are distributed homogeneously on the inner walls and the base of a 25 ml glass tube by turning and rocking on an orbital shaker (rocking rotation at 30 rpm for 2 h). With 900 ppm of active compound solution and internal surface area 44.7 cm^2, given homogeneous distribution, an area-based dose of 5 μg/cm^2 is achieved.
After the solvent has evaporated off, the tubes are populated with 5-10 adult cat fleas (Ctenocephalides felis), sealed with a perforated plastic lid and incubated in a horizontal position at room temperature and ambient humidity. After 48 h, efficacy is determined. To this end, the tubes are stood upright and the fleas are knocked to the base of the tube. Fleas which remain motionless at the base or move in an uncoordinated manner are considered to be dead or moribund.
100% efficacy means that all the fleas were dead or moribund. 0% efficacy means that no fleas were harmed.

Nezara viridula = Nezara viridula spray test; settings: 500 g/ha, larvae on barley plants, after 4 days
Description: Nezara viridula—Spray Test Solvent: 78.0 parts by weight of acetone • • 1.5 parts by weight of dimethylformamide Emulsifier: alkylaryl polyglycol ether
as §2
Barley plants (Hordeum vulgare) are sprayed with an active compound formulation of the desired concentration and are infected with larvae of the Southern green shield bug (Nezara viridula).
After 4 days, the efficacy in % is determined. 100% means that all of the shield bugs have been killed; 0% means that none of the shield bugs have been killed.

SMILES | pest or weed control at 100 ppm (Ctenocephalides felis [1]) [%] | pest or weed control at 100 g/ha (Spodoptera frugiperda) [%] | pest or weed control at 500 g/ha (Spodoptera frugiperda) [%] | efficacy (spider mites killed) (Tetranychus urticae; foliar, 144 h) [%] | pest or weed control at 100 g/ha (Phaedon cochleariae) [%] | pest or weed control at 500 g/ha (Phaedon cochleariae) [%] | efficacy (kill) (Musca domestica) [%] | pest or weed control at 100 g/ha (Diabrotica balteata) [%] | pest or weed control at 500 g/ha (Diabrotica balteata) [%] | efficacy (aphids killed) (Myzus persicae) [%] | efficacy (spider mites killed) (Tetranychus urticae; bean leaf discs, all stages, after 6 days) [%] | efficacy (laying of fertile eggs) (Boophilus microplus) [%] | pest or weed control at 125 g/ha (Diabrotica balteata; 125 g/ha (=40 μg/cavity)) [%] | pest or weed control at 5 µg/cm2 (Ctenocephalides felis [2]) [%] | efficacy (shield bugs killed) (Nezara viridula) [%]
CCO[C@@H]1[C@@H](OC)[C@H](C)O[C@@H](OC(=O)Nc2ccc(-c3nc(NC(C)=O)n(-c4ccc(OC(F)(F)C(F)(F)F)cc4)n3)cc2)[C@@H]1OC [Compound I-006] | 95 | 100 | 100 | 100 | 100 | 100 | 80 |  |  |  |  |  |  |  | 
CC(C)c1ccccc1NC(=S)NN=Cc1ccc(-c2nc(NC3CSC3)n(-c3ccc(OC(F)(F)F)cc3)n2)cc1 [Compound I-057] |  | 100 |  |  |  |  |  | 100 | 100 | 90 |  |  |  |  | 
CCOCCNc1nc(-c2ccc(C=NNC(=S)Nc3ccccc3C(C)C)cc2)nn1-c1ccc(OC(F)(F)F)cc1 [Compound I-060] |  | 100 |  |  |  |  |  | 100 | 100 |  | 90 |  |  |  | 
CCO[C@@H]1[C@@H](OC)[C@H](C)O[C@@H](OC(=O)Nc2ccc(-c3nc(NC(C)=O)n(-c4ccc(OC(F)(F)F)cc4)n3)cc2)[C@@H]1OC [Compound I-001, [(2S,3R,4R,5S,6S)-4-ethoxy-3,5-dimethoxy-6-methyl-tetrahydropyran-2-yl]N-[4-[5-acetamido-1-[4-(trifluoromethoxy)phenyl]-1,2,4-triazol-3-yl]phenyl]carbamate] |  | 100 | 100 | 90 |  | 100 |  |  |  |  |  |  |  |  | 
CCC(=O)Nc1nc(-c2ccc(NC(=O)O[C@@H]3O[C@@H](C)[C@H](OC)[C@@H](OC)[C@H]3OC)cc2)nn1-c1ccc(OC(F)(F)C(F)(F)F)cc1 [Compound I-003] | 100 | 100 | 100 |  | 100 | 100 |  |  |  |  |  | 100 |  |  | 
CCO[C@@H]1[C@@H](OC)[C@H](C)O[C@@H](OC(=O)Nc2ccc(-c3nc(NC(=O)CC)n(-c4ccc(OC(F)(F)C(F)(F)F)cc4)n3)cc2)[C@@H]1OC [Compound I-005] | 100 | 100 | 100 |  | 100 | 100 | 80 |  |  |  |  | 90 |  |  | 
CNc1nc(-c2ccc(C=NNC(=S)Nc3ccccc3C(C)C)cc2)nn1-c1ccc(OC(F)(F)F)cc1 [Compound I-018, 1-(2-isopropylphenyl)-3-[[4-[5-(methylamino)-1-[4-(trifluoromethoxy)phenyl]-1,2,4-triazol-3-yl]phenyl]methyleneamino]thiourea] | 95 | 100 |  |  |  |  |  |  | 100 | 90 |  |  | 100 | 80 | 100
CCO[C@@H]1[C@@H](OC)[C@H](C)O[C@@H](OC(=O)Nc2ccc(-c3nc(NC(=O)CC)n(-c4ccc(OC(F)(F)F)cc4)n3)cc2)[C@@H]1OC [Compound I-007] | 90 |  | 100 |  | 100 | 100 |  |  |  |  |  | 100 |  |  | 
